Drawing on ChEMBL document CHEMBL5331045, “Recent advances in β-lactamase inhibitor chemotypes and inhibition modes” (Eur J Med Chem, 2022), this text covers IC50, Ki and MIC for 13 molecules.

Test [1] can be described thus: Inhibition of IMP28 (unknown origin) using fluorescent cephalosporin FC5 as substrate incubated for 15 mins followed by substrate addition measured by fluorescence based analysis. The arrangement: species or system Homo sapiens.
Test [2] can be described thus: Inhibition of VIM2 (unknown origin) using fluorescent cephalosporin FC5 as substrate incubated for 15 mins followed by substrate addition measured by fluorescence based analysis. Details: species or system Homo sapiens; call rule not given here.
Test [3] concerns the target T1, Metallo-beta-lactamase type 2 (Bacteria, UniProt C7C422). The test is described as follows: Inhibition of NDM1 (unknown origin) using fluorescent cephalosporin FC5 as substrate incubated for 15 mins followed by substrate addition measured by fluorescence based analysis.
A short description of test [4]: Binding affinity to beta-lactamase AmpC (unknown origin) assessed as inhibition constant by measuring nitrocefin hydrolysis by spectrometric analysis. The arrangement: species or system Homo sapiens.
The nature of test [5]: Binding affinity to TEM1 (unknown origin) assessed as inhibition constant. The arrangement: species or system Homo sapiens.
The nature of test [6]: Binding affinity to AmpC (unknown origin) assessed as inhibition constant. The arrangement: species or system Homo sapiens.
A short description of test [7]: Binding affinity to TEM30 (unknown origin) assessed as inhibition constant. Details: species or system Homo sapiens.
Test [8] in a line: Binding affinity to N289A (unknown origin) assessed as inhibition constant. Details: species or system Homo sapiens.
The next test concerns the target Beta-lactamase L1 (Stenotrophomonas maltophilia, UniProt P52700). The test can be described thus: Inhibition of Stenotrophomonas maltophilia L1 preincubated for 30 mins followed by nitrocefin solution measured by UV based microtitre plate analysis.
A short description of test [9]: Inhibition of IMP1 (unknown origin). The arrangement: species or system Bacteria.
Test [10] is described as follows: Inhibition of VIM2 (unknown origin). The arrangement: species or system Bacteria.
Test [11] in a line: Inhibition of Enterobacter CTX-M-15 incubated for 15 mins.
The nature of test [12]: Inhibition of Enterobacter VIM-2 incubated for 15 mins.
Test [13] can be described thus: Inhibition of Enterobacter SHV-5 incubated for 15 mins.
Test [14] in a line: Inhibition of Enterobacter NDM-1 incubated for 15 mins.
Test [15] can be described thus: Inhibition of Enterobacter IMP-1 incubated for 15 mins.
The nature of test [16]: Inhibition of Enterobacter KPC-2 incubated for 15 mins.
Test [17] in a line: Inhibition of Enterobacter OXA-1 incubated for 15 mins.
The nature of test [18]: Inhibition of KPC-2 (unknown origin). Details: species or system Homo sapiens.
Test [19] can be described thus: Binding affinity to Acinetobacter derived cephalosporinase 7 (D24-K383 residues) assessed as inhibition constant.
The subject of test [20] is Escherichia coli. The test can be described thus: Antimicrobial activity against Escherichia coli expressing CMY-2 in presence of piperacillin. The class given is functional.
The test system of test [21] is Escherichia coli. The test is described as follows: Antimicrobial activity against Escherichia coli expressing OXA-48 in presence of piperacillin. In kind it is functional.
For test [22], the system named is Escherichia coli. The test can be described thus: Antimicrobial activity against Escherichia coli expressing DHA-1 in presence of piperacillin. The class given is functional.
Test [23] relates to Escherichia coli. The test is described as follows: Antimicrobial activity against Escherichia coli expressing TEM10 in presence of piperacillin. The class given is functional.
Test [24] concerns Escherichia coli. The test is described as follows: Antimicrobial activity against Escherichia coli expressing TEM1 in presence of piperacillin. The class given is functional.
In test [25] the test system is Escherichia coli. The test is described as follows: Antimicrobial activity against Escherichia coli expressing OXA-40 in presence of piperacillin. The class given is functional.
For test [26], the system named is Escherichia coli. The test can be described thus: Antimicrobial activity against Escherichia coli expressing SHV-12 in presence of piperacillin. The class given is functional.
Test [27] concerns Escherichia coli. The test is described as follows: Antimicrobial activity against Escherichia coli expressing OXA-10 in presence of piperacillin. The class given is functional.
The subject of test [28] is Escherichia coli. The test is described as follows: Antimicrobial activity against Escherichia coli expressing KPC-2 in presence of piperacillin. In kind it is functional.
Test [29] deals with Escherichia coli. The test is described as follows: Antimicrobial activity against Escherichia coli expressing AmpC in presence of piperacillin. In kind it is functional.
Test [30] has as its system Escherichia coli. The test is described as follows: Antimicrobial activity against Escherichia coli expressing CTX-M-15 in presence of piperacillin. The class given is functional.
The test system of test [31] is Escherichia coli. The test can be described thus: Antimicrobial activity against Escherichia coli expressing OXA-23 in presence of piperacillin. The class given is functional.
Test [32] deals with Beta-lactamase (Escherichia coli K-12, UniProt P00811). The test can be described thus: Binding affinity to Escherichia coli AmpC assessed as inhibition constant using nitrocefin as substrate by microplate reader analysis.
Test [33] can be described thus: Binding affinity to Escherichia coli SHV-2 assessed as inhibition constant using nitrocefin as substrate by microplate reader analysis.
The target of test [34] is Class A carbapenemase KPC-2 (Escherichia coli, UniProt A8DS27). The test can be described thus: Binding affinity to Escherichia coli KPC-2 assessed as inhibition constant using nitrocefin as substrate by microplate reader analysis.
Test [35] addresses T2, Beta-lactamase TEM-1 (Escherichia coli, UniProt Q4GY26). The test can be described thus: Binding affinity to Escherichia coli TEM1 assessed as inhibition constant using nitrocefin as substrate by microplate reader analysis.
Test [36] in a line: Binding affinity to Escherichia coli CTX-M-9 assessed as inhibition constant using nitrocefin as substrate by microplate reader analysis.
The next test has as its target Beta-lactamase CTX-M-27 (Escherichia coli, UniProt Q840M4). The test is described as follows: Binding affinity to Escherichia coli CTX-M-27 assessed as inhibition constant using nitrocefin as substrate by microplate reader analysis.
The nature of test [37]: Binding affinity to Escherichia coli OXA-48 assessed as inhibition constant using nitrocefin as substrate by microplate reader analysis.
Test [38] concerns the target T3, Beta-lactamase CTX-M-14 (Escherichia coli, UniProt Q9L5C7). The test can be described thus: Binding affinity to Escherichia coli CTX-M-14 assessed as inhibition constant using nitrocefin as substrate by microplate reader analysis.
A short description of test [39]: Binding affinity to Escherichia coli CTX-M-15 assessed as inhibition constant using nitrocefin as substrate by microplate reader analysis.
Test [40] is described as follows: Inhibition of Pseudomonas aeruginosa KPC2.
Test [41] is described as follows: Inhibition of Pseudomonas aeruginosa OXA-24.
Test [42] has as its target Beta-lactamase (Pseudomonas aeruginosa (strain ATCC 15692 / PAO1 / 1C / PRS 101 / LMG12228), UniProt P24735). The test is described as follows: Inhibition of Pseudomonas aeruginosa AmpC.
In another test the target is Beta-lactamase OXA-1 (Escherichia coli, UniProt P13661). The test can be described thus: Inhibition of Escherichia coli beta-lactamase OXA-1.
Test [43] can be described thus: Inhibition of Escherichia coli beta-lactamase CMY-2.
The nature of test [44]: Inhibition of Escherichia coli beta-lactamase CTX-M-15.
Test [45] has as its target Beta-lactamase (Enterobacter cloacae, UniProt P05364). The test can be described thus: Inhibition of Enterobacter cloacae AmpC.
The target of test [46] is T3, Beta-lactamase CTX-M-14. The test can be described thus: Inhibition of Escherichia coli beta-lactamase CTX-M-14.
The nature of test [47]: Inhibition of Aeromonas hydrophila IMP1 preincubated for 30 mins followed by nitrocefin solution measured by UV based microtitre plate analysis.
Test [48] in a line: Inhibition of Escherichia coli beta-lactamase TEM-10.
Test [49] deals with T4, Carbapenem-hydrolyzing beta-lactamase KPC (Klebsiella pneumoniae, UniProt Q9F663). The test can be described thus: Inhibition of Klebsiella pneumoniae beta-lactamase KPC-2.
Test [50] can be described thus: Inhibition of Pseudomonas aeruginosa beta-lactamase OXA-2.
The target of another test is Beta-lactamase OXA-23 (Acinetobacter baumannii, UniProt Q9L4P2). The test is described as follows: Inhibition of Acinetobacter baumannii beta-lactamase OXA-23.
Test [51] in a line: Inhibition of Escherichia coli beta-lactamase CTX-M-44.
Test [52] deals with T2, Beta-lactamase TEM-1. The test is described as follows: Inhibition of Escherichia coli beta-lactamase TEM-1.
The nature of test [53]: Binding affinity to CTX-M-14 (unknown origin) assessed as inhibition constant. Details: species or system Homo sapiens.
Test [54] is described as follows: Binding affinity to KPC-2 (unknown origin) assessed as inhibition constant. Details: species or system Homo sapiens.
Test [55] can be described thus: Inhibition of Imis (unknown origin) using cefazolin as substrate. Details: species or system Homo sapiens.
Test [56] in a line: Inhibition of L1 (unknown origin) using cefazolin as substrate. The arrangement: species or system Homo sapiens.
Test [57] is described as follows: Inhibition of IMP1 (unknown origin) using cefazolin as substrate. The arrangement: species or system Homo sapiens.
In test [58] the target is T1, Metallo-beta-lactamase type 2. The test can be described thus: Inhibition of NDM1 (unknown origin) using cefazolin as substrate.
Test [59] in a line: Inhibition of Escherichia coli beta-lactamase CTX-M-15 using nitrocefin as substrate measured after 20 mins.
Test [60] can be described thus: Inhibition of Klebsiella pneumoniae beta-lactamase CMY-2 using nitrocefin as substrate measured after 20 mins.
Test [61] has as its target T4, Carbapenem-hydrolyzing beta-lactamase KPC. The test is described as follows: Inhibition of Klebsiella pneumoniae beta-lactamase KPC-2 using nitrocefin as substrate measured after 20 mins.

pIC50, pKi: −log10 of the molar value.

T4 sequence (Q9F663 whole entry): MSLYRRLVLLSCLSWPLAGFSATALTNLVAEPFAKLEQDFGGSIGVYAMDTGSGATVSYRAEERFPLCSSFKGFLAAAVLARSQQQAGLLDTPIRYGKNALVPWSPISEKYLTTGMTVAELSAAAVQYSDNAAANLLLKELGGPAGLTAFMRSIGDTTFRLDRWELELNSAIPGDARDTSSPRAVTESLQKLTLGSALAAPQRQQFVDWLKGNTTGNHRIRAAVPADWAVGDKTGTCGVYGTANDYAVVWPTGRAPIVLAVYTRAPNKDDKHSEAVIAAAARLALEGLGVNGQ
T2 sequence (Q4GY26 whole entry): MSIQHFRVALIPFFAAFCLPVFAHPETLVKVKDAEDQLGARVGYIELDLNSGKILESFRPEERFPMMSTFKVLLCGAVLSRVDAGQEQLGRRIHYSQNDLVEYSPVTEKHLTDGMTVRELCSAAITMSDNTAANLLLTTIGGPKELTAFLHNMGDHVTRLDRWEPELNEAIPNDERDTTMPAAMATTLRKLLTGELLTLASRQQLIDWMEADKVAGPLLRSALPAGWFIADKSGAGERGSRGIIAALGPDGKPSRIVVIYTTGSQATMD
T1 sequence (C7C422 whole entry): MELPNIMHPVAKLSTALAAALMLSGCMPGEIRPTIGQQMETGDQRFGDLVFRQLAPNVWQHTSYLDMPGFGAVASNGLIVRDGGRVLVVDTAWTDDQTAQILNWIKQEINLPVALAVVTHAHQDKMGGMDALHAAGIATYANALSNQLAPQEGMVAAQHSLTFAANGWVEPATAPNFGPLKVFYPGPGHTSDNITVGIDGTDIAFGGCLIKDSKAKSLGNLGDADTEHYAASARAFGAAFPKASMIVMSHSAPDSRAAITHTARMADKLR
T3 sequence (Q9L5C7 whole entry): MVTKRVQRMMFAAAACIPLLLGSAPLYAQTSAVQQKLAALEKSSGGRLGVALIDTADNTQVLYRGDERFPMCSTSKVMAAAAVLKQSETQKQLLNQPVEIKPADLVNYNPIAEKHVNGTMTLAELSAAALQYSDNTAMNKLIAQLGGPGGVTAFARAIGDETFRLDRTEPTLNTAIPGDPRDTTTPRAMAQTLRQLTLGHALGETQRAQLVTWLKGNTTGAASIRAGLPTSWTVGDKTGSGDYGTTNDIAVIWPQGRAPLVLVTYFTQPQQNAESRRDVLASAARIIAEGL
Chain of Beta-lactamase OXA-23 (Q9L4P2 whole entry): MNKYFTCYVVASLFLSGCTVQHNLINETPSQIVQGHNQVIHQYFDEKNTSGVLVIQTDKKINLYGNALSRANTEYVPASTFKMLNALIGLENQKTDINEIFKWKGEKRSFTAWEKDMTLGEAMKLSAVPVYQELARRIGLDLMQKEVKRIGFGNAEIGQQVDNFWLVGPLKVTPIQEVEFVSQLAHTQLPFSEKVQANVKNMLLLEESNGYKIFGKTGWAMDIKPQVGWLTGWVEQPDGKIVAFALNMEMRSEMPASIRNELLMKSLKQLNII
Chain of Class A carbapenemase KPC-2 (A8DS27 whole entry): as the sequence (Q9F663 whole entry) above
Chain of Beta-lactamase CTX-M-27 (Q840M4 whole entry): as the sequence (Q9L5C7 whole entry) above, with D242G counted along it
Chain of Beta-lactamase (Enterobacter cloacae, UniProt P05364) (P05364 whole entry): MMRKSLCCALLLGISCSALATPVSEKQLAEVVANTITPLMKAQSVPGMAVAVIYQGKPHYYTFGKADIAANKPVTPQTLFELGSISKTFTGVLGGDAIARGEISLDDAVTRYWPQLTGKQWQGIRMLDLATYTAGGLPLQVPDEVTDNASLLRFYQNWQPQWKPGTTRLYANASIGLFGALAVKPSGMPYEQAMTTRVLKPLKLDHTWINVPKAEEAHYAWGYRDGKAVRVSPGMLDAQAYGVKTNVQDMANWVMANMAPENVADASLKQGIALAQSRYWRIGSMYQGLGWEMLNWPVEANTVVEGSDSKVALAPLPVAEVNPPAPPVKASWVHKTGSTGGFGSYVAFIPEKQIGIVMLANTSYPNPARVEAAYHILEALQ
Chain of Beta-lactamase (Escherichia coli K-12, UniProt P00811) (P00811 whole entry): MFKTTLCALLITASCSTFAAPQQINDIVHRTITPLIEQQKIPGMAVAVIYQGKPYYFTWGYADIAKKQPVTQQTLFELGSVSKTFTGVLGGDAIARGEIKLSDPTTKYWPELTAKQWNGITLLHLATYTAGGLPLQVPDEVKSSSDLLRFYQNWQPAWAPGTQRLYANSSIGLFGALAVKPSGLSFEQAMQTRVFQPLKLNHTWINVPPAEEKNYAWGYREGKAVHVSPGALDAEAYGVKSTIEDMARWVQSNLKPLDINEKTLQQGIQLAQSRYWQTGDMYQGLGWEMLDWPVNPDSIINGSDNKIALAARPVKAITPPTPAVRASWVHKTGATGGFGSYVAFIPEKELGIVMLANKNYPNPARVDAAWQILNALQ
Chain of Beta-lactamase (Pseudomonas aeruginosa (strain ATCC 15692 / PAO1 / 1C / PRS 101 / LMG12228), UniProt P24735) (P24735 whole entry): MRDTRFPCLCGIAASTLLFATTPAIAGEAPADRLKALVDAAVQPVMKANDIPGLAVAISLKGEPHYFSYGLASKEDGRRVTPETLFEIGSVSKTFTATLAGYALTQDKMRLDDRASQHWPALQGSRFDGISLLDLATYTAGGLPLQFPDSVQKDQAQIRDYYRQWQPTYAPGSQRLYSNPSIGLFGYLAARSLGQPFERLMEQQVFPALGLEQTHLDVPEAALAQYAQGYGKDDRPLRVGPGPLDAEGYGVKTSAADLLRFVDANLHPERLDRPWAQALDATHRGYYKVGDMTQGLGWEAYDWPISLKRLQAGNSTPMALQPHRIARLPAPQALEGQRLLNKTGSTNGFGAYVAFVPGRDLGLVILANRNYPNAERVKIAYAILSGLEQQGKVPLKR
Chain of Beta-lactamase OXA-1 (P13661 whole entry): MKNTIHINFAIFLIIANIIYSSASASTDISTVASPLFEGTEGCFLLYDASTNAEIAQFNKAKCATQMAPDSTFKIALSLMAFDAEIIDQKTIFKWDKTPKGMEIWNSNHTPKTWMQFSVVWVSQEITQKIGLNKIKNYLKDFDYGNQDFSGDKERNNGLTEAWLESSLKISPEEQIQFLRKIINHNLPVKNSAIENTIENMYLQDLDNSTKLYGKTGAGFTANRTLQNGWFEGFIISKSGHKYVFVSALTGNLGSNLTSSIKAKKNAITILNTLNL
Chain of Beta-lactamase L1 (P52700 whole entry): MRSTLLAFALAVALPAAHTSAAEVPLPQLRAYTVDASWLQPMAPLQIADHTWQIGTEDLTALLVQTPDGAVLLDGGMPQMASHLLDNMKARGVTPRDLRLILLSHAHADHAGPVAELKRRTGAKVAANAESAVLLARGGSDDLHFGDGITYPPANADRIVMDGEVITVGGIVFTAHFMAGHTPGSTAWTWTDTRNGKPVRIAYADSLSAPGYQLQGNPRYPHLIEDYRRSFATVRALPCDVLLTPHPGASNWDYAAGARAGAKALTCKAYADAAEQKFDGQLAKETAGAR

One may read the pIC50 as the negative decadic logarithm of the IC50, by convention in mol/L. Read a low pIC50 as a high IC50. Regarding `O=C(O)CN(CC(=O)O)CC(=O)O` [NITRILOTRIACETIC ACID], the pIC50 in test [1] is 3.95; in test [2], 5.62; in test [3], 5.89.

Broadly, the pKi is the negative decadic logarithm of the Ki, by convention in mol/L. For the molecule `O=C(Nc1cccc(-c2nnn[nH]2)c1)c1cccc(F)c1`, the pKi in test [4] was 2.55.

As for `O=C(O)/C=C/c1cccc([C@H](NC(=O)Cc2cccs2)B(O)O)c1`, the pKi in [5] is 6.97; in test [6], 8.00; in [7], 5.42; in test [8] it was 8.52.

On to `O=C(CSc1nnc(-c2ccccc2C(=O)O)[nH]1)Nc1nc2ccccc2s1`, for which the pIC50 at Beta-lactamase L1 is 4.49; in test [9], 5.92; in test [10], 4.70.

For `CCC(=O)N[C@H]1Cc2cccc(C(=O)O)c2OB1O` [LEDABORBACTAM], the pIC50 was 7.74 in test [11]; 5.04 in test [12]; 6.43 in [13]; 4.42 in [14]; below 4.00 in [15]; 7.10 in test [16]. The same molecule showed a pIC50 in test [17] of 7.18.

Molecule `O=C(O)c1cn(CB(O)O)nn1` had a negative logarithm of the IC50 (pIC50) in test [18] of 5.33. For the same molecule, in [19], the negative-log Ki (pKi) is 5.21.

One may read the MIC as the least concentration at which growth counts as inhibited. For `C[C@]12CNC(=O)[C@H]1N1C[C@@H](C2)N(OS(=O)(=O)[O-])C1=O.[Na+]`, the MIC stood at 2 µg/mL in the test with Escherichia coli [20]; 4 µg/mL in the test with Escherichia coli [21]; 4 µg/mL in the test on Escherichia coli [22]; 4 µg/mL in the test with Escherichia coli [23]; 4 µg/mL in the test with Escherichia coli [24]; 8 µg/mL in the test with Escherichia coli [25]. For the same molecule, the MIC with Escherichia coli [26], with Escherichia coli [27], in the test with Escherichia coli [28], with Escherichia coli [29], in the test on Escherichia coli [30] and in the test with Escherichia coli [31] was 4 µg/mL each time.

As for `O=C(Nc1cccc(-c2nnn[nH]2)c1)c1cc(C(F)(F)F)cc2[nH]cnc12`, the pKi is 3.41 on Beta-lactamase [32]; 4.59 in test [33]; 4.01 in [34]; 7.05 in test [36]; 6.55 on Beta-lactamase CTX-M-27; 3.32 in test [37]. Also, the pKi at Beta-lactamase CTX-M-14 [38] was 7.07; in test [39], 6.60. Further, the Ki entry on Beta-lactamase TEM-1 [35] is recorded as “Not Active”.

As for `CC1=C[C@H]2CN(C(=O)N2OS(=O)(=O)O)[C@@H]1C(N)=O`, the pIC50 in [40] was 8.40; in [41] it was 6.72; against Beta-lactamase [42], 7.85.

For the molecule `NCCONC(=O)[C@@H]1CC[C@@H]2CN1C(=O)N2OS(=O)(=O)O` [NACUBACTAM], the pIC50 is 5.52 at Beta-lactamase OXA-1; 7.82 in test [43]; 7.89 in test [44]; 6.07 at Beta-lactamase [45]; 8.00 on Beta-lactamase CTX-M-14 [46]; 5.85 in [47]. Also, the negative-log IC50 (pIC50) is 7.02 in [48]; 6.06 in test [49]; 5.97 in test [50]; 4.33 against Beta-lactamase OXA-23; 7.66 in test [51]; 7.59 against Beta-lactamase TEM-1 [52].

In the case of `CC(c1nnn[nH]1)n1cnc2sc3c(c2c1=O)CCCC3` (single isomer, unassigned), the pKi was 2.60 in test [53] and 3.71 in test [54].

In the case of `O=C(O)C1=C(CSc2nnc(-c3ccc(-n4[se]c5ccccc5c4=O)cc3)[nH]2)CSC2[C@@H](NC(=O)c3ccccc3)C(=O)N12` (stereo not given in full), the pIC50 is 5.31 in test [55], 5.18 in test [56], 6.55 in [57] and 5.53 in test [58].

With `NS(=O)(=O)C1CC[C@@H]2CN1C(=O)N2OS(=O)(=O)O` (stereo not given in full), the pIC50 is 6.85 in test [59], 6.94 in test [60] and 7.36 in test [61].
